The values below come from patent US11591294B2, “Fluorenone/fluorenol derivatives for aqueous redox flow batteries” (Battelle Memorial Institute, priority 2019, dated 2023).

Data set [1] is described as follows: Solubility test. The format is physicochemical. The procedure:
Solubility test: The dissolving solvent was added drop by drop to 1 mmol of testing powder with intermittent agitation with VWR Vertex mixer, until all powder was dissolved. The total mass of the solution was recorded. A glass micro syringe was used to transfer 100 μL of the solution directly to a tared weight glass vial for mass measurement. Specific gravity of the as-obtained solution was calculated, then the total volume of the as-obtained solution was calculated using calculated density and recorded total solution mass. Last, molarity was calculated based on calculated total solution volume (Duan et al., ACS Energy Letters 2017, 2:1156-1161).
The solubilities of as-synthesized FLs in basic solution, 2 M NaOH/KOH, was investigated. […] The energy density is almost double that of a conventional vanadium electrolyte.

Data set [2] can be described thus: Cyclic voltammetry in aqueous 1 M NaOH. It counts as physicochemical. The following applies: 1 M NaOH solution. As for the experimental part: Electrochemical tests: CV measurements in aqueous phase were performed using a three-electrode configuration consisting of a glassy carbon working electrode (3 mm diameter), a glassy carbon counter electrode and an Ag/AgCl reference electrode. The electrolytes of 10 mM redox-active materials in 1.0 M NaOH were used. CV data were collected using a CHI760D potentiostat (CH Instruments) at a scan rate of 100 mV s^−1 (Hollas et al., Nature Energy 2018, 3:508-514). CV measurements in nonaqueous phase were performed using a three-electrode configuration consisting of a glassy carbon working electrode (3 mm diameter), a glassy carbon counter electrode and an Ag/AgNO3 (10 mM in Acetonitrile) as reference electrode or Ag wire as pseudo reference electrode (Inzelt et al., Handbook of Reference Electrodes, 2013, Springer). Tests were carried out in an argon-filled Mbraun glove box (Stratham, N.H., USA).
In view of the DFT calculation, it was theorized that functionalization of the FL ring structures with electron withdrawing groups such as —F, -sulfonamide, and —SO3−, among others, would shift the equilibrium constant to increase the concentration of deprotonated FL-OH anion/dianion relative to FL-OH, thereby improving the two-electron redox-reversibility of FLs. […] As expected, the CV curves with two pairs of peaks become clear and sharp with adding stronger electron withdrawing groups. […]

For data set [3] the following is noted: 2M KOH column; literature data provided as a comparison (tested in KOH); cited from earlier work.
Data set [4] is described as follows: Post-cycling analysis of anolyte (NMR, mass spectroscopy). The format is physicochemical. Particulars: after 6-month operation, 1.36 M anolyte. The procedure: An additional test was conducted for six months (FIG. 18). […] At about cycle 650, catholyte precipitation was noticed, and replaced with fresh catholyte. No material degradation was detected by NMR or mass-spectroscopy (FIGS. 21 and 22).
For the reason that charged anolyte is usually sensitive to 02, flow battery tests of organic based electrolyte reported so far are conducted in inert atmosphere, which is a significant hurdle to their practical applications. We submit another battery test without significant deaerating treatment at reasonable CE and EE (FIGS. 34 and 35). The 1 M battery was assembled without N2 atmosphere, sealed with a stopper and parafilm, and no further deoxygenation was conducted before charging. The battery operated stably at 20 mA/cm^2 for 2 weeks. The observed capacity fluctuation was attributed to temperature changes on a daily basis. […] The first cycle low CE was attributed to charged material consuming existing 02 in the cell system. As expected, the first cycle charging capacity was a little higher than same amount of substance in a battery inside the purge box (without 02 induced discharge influence). However, no irreversible side reactions occurred and long-term cycling occurred analogous to tests conducted in an inert atmosphere purge box. […]

The mark [5] stands for this setting: 2 M NaOH solution, aqueous buffer, thermodynamic from solid, 2M NaOH, read-out: Solubility.
Setting [6] is: 2 M KOH solution, aqueous buffer, thermodynamic from solid, 2M KOH, read-out: Solubility.

Broadly, the solubility is how much of the substance goes into solution per volume.

In brackets after ≈: the same amount, converted by molar mass. Where two headings read alike, the source gives them in different places.

`O=C1c2cc(OCCOCCOCCO)ccc2-c2ccc(OCCOCCOCCO)cc21` [PEG-FL]: the solubility result in data set [1] (2M KOH) and in data set [1] (2M NaOH) was “trace” throughout.

For the molecule `O=C1c2cc(Br)cc(S(=O)(=O)[O-])c2-c2c1cc(Br)cc2S(=O)(=O)[O-].[K+].[K+]` [Compound 27Br4SFL], the solubility entry in data set [1] (2M KOH) and in data set [1] (2M NaOH) was “trace” each time. Take `O=C(O)c1ccc2c(c1)C(=O)c1cc(C(=O)O)ccc1-2` [DCFL]: the solubility in data set [1] (2M KOH) is 900 mM (≈ 241 mg/mL); in data set [1] (2M NaOH), 40 mM (≈ 10.7 mg/mL).

Turning to `O=C1c2cc(S(=O)(=O)[O-])ccc2-c2ccc(S(=O)(=O)[O-])cc21.[K+].[K+]` [DSFL, Potassium 9-oxo-9H-fluorene-2,7-disulfonate], the solubility in data set [1] (2 M KOH solution, aqueous buffer, thermodynamic from solid, read-out: Solubility) was under 50 mM; in data set [1] (2 M NaOH solution, aqueous buffer, thermodynamic from solid, read-out: Solubility), under 50 mM; in data set [1] (thermodynamic from solid, disodium salt in pure water, read-out: Solubility), at most 240 mM. In the case of `N#Cc1nc2c(nc1O)-c1ccccc1C2=O` [Compound 14N2CN3OHFL, 3-hydroxy-9-oxo-9H-indeno[1,2-b]pyrazine-2-carbonitrile], in data set [1] (setting [5]), the solubility was found to be 1000 mM (≈ 223 mg/mL). This molecule displayed a reversible peak potential in data set [2] of about −0.85 V vs Ag/AgCl. As for `O=C(O)c1ccc2c(c1)C(=O)c1cc(S(=O)(=O)[O-])ccc1-2.[K+]` [Compound 2C7SFL], the solubility in data set [1] (setting [6]) is 700 mM; in data set [1] (setting [5]) it was 1100 mM. Regarding `O=C(O)c1cc(S(=O)(=O)O)cc2c1-c1ccc(S(=O)(=O)O)cc1C2=O` [Compound 27S4CFL, 9-oxo-2,7-sulfo-9H-fluorene-4-carboxylic acid], the solubility in data set [1] (2M NaOH) stood at 800 mM (≈ 307 mg/mL).

In turn, `O=C(O)c1cc(F)cc2c1-c1c(cc(F)cc1S(=O)(=O)[O-])C2=O.[K+]` [Compound 27F4C5SFL] displayed a solubility in data set [1] (2M NaOH) of 150 mM. With `O=C(O)c1cccc2c1-c1ccccc1C2=O` [Compound 4CFL], the solubility in data set [3] is 650 mM (≈ 146 mg/mL). As to `O=C(O)c1cc(F)cc2c1-c1ccc(F)cc1C2=O` [Compound 27F4CFL], the solubility in data set [1] (thermodynamic from solid, with agitation, copious precipitate after sitting overnight, read-out: Solubility (transparent homogeneous solution)) was at most 1400 mM. As for `O=C1c2cccnc2-c2ncccc21` [Compound 45NFL, 4,5-diazafluoren-9-one], in data set [1], the “solubility (in words)” value was “limited solubility”. `O=C1c2cc(O)ccc2-c2ccc(O)cc21` [DHFL, 9-oxo-2,7-dihydroxy-9H-fluorene]: in data set [1] (pure water with 2 eq. NaOH, aqueous buffer, thermodynamic from solid, with 2 eq. NaOH in pure water, read-out: Solubility), the solubility stood at 600 mM (≈ 127 mg/mL).

In the case of `O=C(O)c1ccc2c(c1)C(=O)c1ccccc1-2` [Compound 2CFL], the solubility in data set [3] is 800 mM (≈ 179 mg/mL). For `O=C(O)c1cccc2c1-c1ccc(S(=O)(=O)O)cc1C2=O` [Compound 4C7SFL, 9-Oxo-7-sulfo-9H-fluorene-4-carboxylic acid], the solubility in data set [1] (setting [6]) came out at 1300 mM (≈ 396 mg/mL); in data set [1] (setting [5]), 1500 mM (≈ 456 mg/mL). Also, the available electron concentration in data set [1] (two-electron redox reaction, from solubility) was about 3 M. For the same molecule, the “post-cycling analysis (in words)” value in data set [4] is “small, yet observable new aromatic peaks attributed to de-sulfonation on the fluorenone core structure”.
